Data on three substances can be found in US6113896A, “Pharmaceutical compositions containing ecotin and homologs thereof” (priority 1994, dated 2000).

What all share (format): biochemical, human
One experiment relates to activated protein C. The experiment in a line: Specificity assay, activated protein C. Particulars: for Percent Activity of Activated protein C: 100 nM inhibitor, ~1 h, 4.3 nM enzyme. How it is done: (§1) Specificity Assays The following assays were used to test the specificity of ecotin and the M84K and M84R mutants against various proteases. Ecotin, M84K, M84R (100 nM each), or a control blank were incubated at room temperature for ~1 h with each enzyme. The enzymes tested (enzyme concentration, buffer, substrate) were FXa (1.2 nM, Buffer A, 0.7 mM Spectrozyme fXa), thrombin (3.7 nM, Buffer A, 0.7 mM S2366), TF.cndot.FVIIa (12.0 nM, Buffer B, 0.7 mM S2366), FXIa (1.2 nM, Buffer A containing 1 mg/ml BSA, 0.7 mM S2366), activated protein C (4.3 nM, Buffer A, 0.7 mM S2366), plasmin (15 nM, Buffer A, 1 mM S2251), single chain t-PA (15 nM, Buffer A, 2.5 mM S2288), Factor XIIa (10 nM, Buffer A, 0.5 mM S2302, plasma kallikrein (10 nM, Buffer A, 0.5 mM S2302), HLE (17 nM, 0.1 M Tris, pH 7.5, 0.5 M NaCl and 0.005 % Triton X-100, 0.42 mM MeOSuc-AAPV-pNA) (SEQ ID NO:9), bovine trypsin (10 nM, Buffer A, 0.25 mM Spectrozyme fXa), and bovine chymotrypsin (10 nM, Buffer A, 1 mM Suc-AAPF-pNA) (SEQ ID NO:10). Buffer A contains 50 mM Tris, pH 7.5, 100 mM NaCl, 2 mM CaCl2 and 0.005% Triton X-100. Buffer B contains 50 mM Tris, pH 7.5, 100 mM NaCl, 10 mM CaCl2, 0.5% BSA, 60 nM TF1-243,and 1 mM CHAPS. The initial change in absorbance at 405 nm was monitored after addition of substrate. Controls lacking inhibitor and/or enzyme were also assayed to assess the uninhibited rates and the background substrate hydrolysis rates, respectively.

For another experiment, the system named is TF·FVIIa. Kind of experiment: Specificity assay, TF·FVIIa. The note with it: for Percent Activity of TF/Factor VIIa: 100 nM inhibitor, ~1 h, 12.0 nM enzyme. How it is done:
as §1

The subject of a further experiment is single chain t-PA. The experiment in a line: Specificity assay, single chain t-PA. The note with it: for Percent Activity of t-PA: 100 nM inhibitor, ~1 h, 15 nM enzyme. The method, then: as §1
The subject of a further experiment is thrombin. The experiment in a line: Specificity assay, thrombin. Particulars: for Percent Activity of Thrombin: 100 nM inhibitor, ~1 h, 3.7 nM enzyme. The method, then:
as §1

For the next experiment, the system named is FXIa. The experiment in a line: Specificity assay, FXIa. Particulars: for Percent Activity of Factor XIa: 100 nM inhibitor, ~1 h, 1.2 nM enzyme. The method, then: as §1
For another experiment, the system named is FXa. Kind of experiment: Ecotin·FXa dissociation rate constant (HLE trap). Particulars: for koff (values in parenthesis): calculated from (Ki)·(kon); for koff: measured in presence of excess HLE to trap free ecotin. How it is done: Determination of FXa dissociation rate constant The dissociation rate constant of the ecotin.cndot.FXa complex was measured using HLE to trap the free ecotin released from the complex. FXa (10 μM) was incubated for 1 h in TNCT buffer in the presence and absence of ecotin (12.5 μM) and diluted 1000-fold into TNCT buffer with and without HLE (500 nM). Aliquots (180 μl ) were removed at various times and initial rates of free FXa were measured at 405 nm with 20 μl of 5 mM Spectrozyme fXa. The product curve (free FXa versus time) was fit to equation 6; the value for koff was determined by nonlinear regression analysis.
To measure the dissociation rate constant of ecotin from FXa, the complex was diluted 1000-fold into buffer containing a 50-fold excess of HLE to trap the free ecotin and prevent reassociation. In the absence of HLE, reassociation of ecotin with FXa was so rapid that free FXa was barely detectible (FIG. 4B). Progress of dissociation was monitored as the increase in hydrolysis rate of Spectrozyme fXa resulting from the increasing free FXa with time. Because HLE prevented reassociation the rate of dissociation of the E·I complex is given by equation (5): [formula] which upon integration gives equation (6): […]
where [E] is the free [FXa] at any time t, [E.cndot.I]0 is the concentration of the complex at time zero, and koff is the first order dissociation rate constant. The time dependent E·I complex dissociation curve fit to equation (6) by nonlinear regression analysis is shown in FIG. 4B; the dissociation rate constant for ecotin tested is shown above in Table I.

In a further experiment the test system is Factor XIIa. The experiment in a line: Specificity assay, Factor XIIa. The note with it: for Percent Activity of Factor XIIa: 100 nM inhibitor, ~1 h, 10 nM enzyme. How it is done:
as §1

Where [1] appears, read: text statement, listed as ecotin.

“Also recorded” adds a separate entry of the source.

On to M84R, for which, in the experiment with activated protein C, the “Percent Activity of Activated protein C” value is given as 50%. Besides, the “inhibition of activated protein C, in words” value with activated protein C (listed as P1 Arg mutant) is listed as “significantly inhibited”; in the experiment on activated protein C (text statement), “significant inhibition”. Moreover, in the experiment on TF·FVIIa, the “Percent Activity of TF/Factor VIIa” value is reported as 87%. Further, the “inhibition of TF·FVIIa, in words” value in the experiment with TF·FVIIa (listed as P1 Arg mutant) is listed as “did not inhibit”; in the experiment on TF·FVIIa (text statement), “Neither ecotin, the M84R or M84K mutants inhibited”. Moreover, in the experiment on single chain t-PA, the “Percent Activity of t-PA” value stood at 100%. In addition, the “inhibition of t-PA, in words” value in the experiment on single chain t-PA (listed as P1 Arg mutant) is “did not inhibit”; with single chain t-PA (text statement), “Neither ecotin, the M84R or M84K mutants inhibited”. For the same substance, the “Percent Activity of Thrombin” value in the experiment with thrombin worked out at 4%. In addition, the “inhibition of thrombin, in words” value in the experiment on thrombin (listed as P1 Arg mutant) is on record as “significantly inhibited”; in the experiment with thrombin (text statement), “significant inhibition”. Moreover, the “Percent Activity of Factor XIa” value in the experiment on FXIa is reported as 5%. Further, the “inhibition of FXIa, in words” value in the experiment on FXIa (listed as P1 Arg mutant) is given as “significantly inhibited”; in the experiment on FXIa (text statement), “significant inhibition”. Moreover, in the experiment with FXa, the “koff (values in parenthesis)” value is 1e-06 s⁻¹. Besides, the “Percent Activity of Factor XIIa” value in the experiment with Factor XIIa is on record as 1%. Moreover, the “inhibition of FXIIa, in words” value in the experiment on Factor XIIa (listed as P1 Arg mutant) is recorded as “significantly inhibited”; with Factor XIIa (text statement) it was “still potently inhibited”.

Take M84K: the “Percent Activity of Activated protein C” value with activated protein C was found to be 65%. The figures for the “inhibition of activated protein C, in words” value in the experiment with activated protein C (listed as P1 Lys mutant) and in the experiment with activated protein C (text statement) were “significantly inhibited” and “significant inhibition”, respectively. In addition, the “Percent Activity of TF/Factor VIIa” value in the experiment on TF·FVIIa turned out to be 92%. The “inhibition of TF·FVIIa, in words” value with TF·FVIIa (listed as P1 Lys mutant) is “did not inhibit”; in the experiment on TF·FVIIa (text statement), “Neither ecotin, the M84R or M84K mutants inhibited”. Further, the “Percent Activity of t-PA” value with single chain t-PA came to 100%. For the same substance, the “inhibition of t-PA, in words” value in the experiment on single chain t-PA (listed as P1 Lys mutant) was “did not inhibit”; in the experiment on single chain t-PA (text statement) it was “Neither ecotin, the M84R or M84K mutants inhibited”. In addition, the “Percent Activity of Thrombin” value in the experiment with thrombin amounted to 16%. Also, the “inhibition of thrombin, in words” value was “significantly inhibited” in the experiment with thrombin (listed as P1 Lys mutant) and “significant inhibition” in the experiment on thrombin (text statement). The “Percent Activity of Factor XIa” value with FXIa is given as 12%. Moreover, the “inhibition of FXIa, in words” value in the experiment with FXIa (listed as P1 Lys mutant) is on record as “significantly inhibited”; in the experiment with FXIa (text statement), “significant inhibition”. In addition, in the experiment with FXa, the “koff (values in parenthesis)” value was 4.5e-06 s⁻¹. In the experiment with Factor XIIa, the “Percent Activity of Factor XIIa” value amounted to 0%. The “inhibition of FXIIa, in words” value in the experiment on Factor XIIa (listed as P1 Lys mutant) was “significantly inhibited”; in the experiment with Factor XIIa (text statement), “still potently inhibited”.

As to “Ecotin: E. coli periplasmic protein having the 142 amino acid residue sequence reported by McGrath et al.; recombinant, P1 Met84”, the “Percent Activity of Activated protein C” value with activated protein C was 99%. Also, the “inhibition of activated protein C, in words” value is on record as “did not effectively inhibit” in the experiment with activated protein C (text statement) and “little or no inhibition” with activated protein C (setting [1]). Also, in the experiment with TF·FVIIa, the “Percent Activity of TF/Factor VIIa” value is 99%. Besides, the “inhibition of TF·FVIIa, in words” value in the experiment on TF·FVIIa (text statement) is recorded as “did not effectively inhibit”; with TF·FVIIa (setting [1]) it was “little or no inhibition; also recorded: No inhibition; also recorded: does not inhibit”. The “Percent Activity of t-PA” value in the experiment on single chain t-PA was 100%. Besides, the “inhibition of t-PA, in words” value is on record as “did not effectively inhibit” in the experiment on single chain t-PA (text statement) and “little or no inhibition; also recorded: No inhibition” in the experiment with single chain t-PA (setting [1]). Further, the “Percent Activity of Thrombin” value in the experiment with thrombin amounted to 98%. The results for the “inhibition of thrombin, in words” value in the experiment with thrombin (text statement) and in the experiment with thrombin (setting [1]) were “did not effectively inhibit” and “little or no inhibition”, respectively. For the same substance, the “Percent Activity of Factor XIa” value in the experiment with FXIa was 79%. Besides, the “inhibition of FXIa, in words” value is given as “did not effectively inhibit” in the experiment on FXIa (text statement) and “little or no inhibition” with FXIa (setting [1]). In addition, the “half-life of ecotin·FXa complex in vitro” value in the experiment on FXa was “ca. 3 h”. Besides, the “koff (values in parenthesis)” value in the experiment with FXa is 2.2e-05 s⁻¹. Moreover, the koff in the experiment with FXa, in the experiment on FXa (listed as Wild type) and with FXa (listed as ecotin) was 6.5e-05 s⁻¹ each time. Further, the “Percent Activity of Factor XIIa” value in the experiment on Factor XIIa was found to be 0%. In addition, the “inhibition of FXIIa, in words” value with Factor XIIa (text statement) is “potently inhibited”.
